Experimental data published in US20250281488A1, “VCP INHIBITORS AND USES THEREOF FOR TREATMENT” (The Francis Crick Institute Limited, priority 2021, published 2025).
Entries after “also recorded” stand apart in the source; their conditions may differ. Where two headings read alike, the source gives them in different places.

Legend:
VCP mutant motor neurons = assay: RBP localisation by immunofluorescence in VCP mutant iPSC-derived motor neurons; assay type: cell-based, human
Procedure: (§1) Cell culture and motor neuron differentiation. IPSCs were maintained with Essential 8 Medium media (Life Technologies) on Geltrex (Life Technologies), and passaged using EDTA (Life Technologies, 0.5 mM). IPSC cultures were kept at 37° C. and 5% carbon dioxide. IPSCs underwent differentiation into spinal cord motor neurons as described in Hall et al, 2017 [12].
(§2) IPSC were plated to 100% confluency and then differentiated to the neuroepithelium in medium consisting of DMEM/F12 Glutamax, Neurobasal, L-Glutamine, N2 supplement, nonessential amino acids, B27 supplement, β-mercaptoethanol (all from Life Technologies) and insulin (Sigma). The cells underwent a sequential treatment with small molecules, with day 0-7: 1 μM Dorsomorphin (Millipore), 2 μM SB431542 (Tocris Bioscience), and 3.3 μM CHIR99021 (Miltenyi Biotec), day 7-14: 0.5 μM retinoic acid (Sigma) and 1 μM Purmorphamine (Sigma), day 14-18: 0.1 μM Purmorphamine. Following 18 days of neural conversion and patterning, neural precursors were terminally differentiated in 0.1 μM Compound E (Enzo Life Sciences).
(§3) […] neuroepithelial layer was enzymatically dissociated using dispase (GIBCO, 1 mg ml−1). The neural precursors were dissociated with Accutase (Life Technologies) for final plating onto a 96 well plate (Falcon) coated with polyethylenimine (PEI) (2.2 mg/ml in 0.1M of sodium borate (Sigma) and Geltrex. Following 6 days of terminal differentiation, cells were fixed in 4% paraformaldehyde for immunolabeling.
(§4) Inhibitor treatment. Motor neuron cultures were treated with 1 μM of ML240 (Sigma; SML1071; CAS:1346527-98-7) for 2 hours, 5 μM of DBeQ for 3 hours or 1 μM of CB-5083 for 3 hours.
(§5) Immunofluorescence staining. Cells were fixed in 4% paraformaldehyde in PBS for 15 minutes at room temperature (RT). For permeabilization and non-specific antibody blocking, 0.3% Triton-X containing 5% bovine serum albumin (BSA) (Sigma) in PBS was added for 60 minutes. Primary antibodies were made up in 5% BSA and then applied overnight at 4° C. Primary antibodies used were SMI-32 (BioLegend; 801701; mouse; 1:1000), ChAT (Millipore; AB144P; goat; 1:100), βIII-tubulin (abcam; ab41489; chicken; 1:1000), TDP-43 (ProteinTech; 12892-1-AP; rabbit; 1:400), SFPQ (abcam; ab11825; mouse; 1:400), FUS (Santa Cruz; sc-47711; mouse; 1:200), hnRNPA1 (Cell Signaling; 8443S; rabbit; 1:500), hnRNPK (Santa Cruz; sc-28380; mouse; 1:500). A species-specific Alexa Fluor-conjugated secondary antibody (Life Technologies) at 1:1000 dilution in 5% BSA was added for 90 minutes at RT in the dark. Cells were washed once in PBS containing DAPI, 4′,6-diamidino-2-phenylindole nuclear stain (1:1000) for 10 minutes.
(§6) Image acquisition and analysis. Images were acquired using the Opera Phenix High-Content Screening System (Perkin Elmer). Images were acquired with a 40× objective as confocal z-stacks with a z-step of 1 μm. Stacks were processed to obtain a maximum intensity projection. A minimum of 12 fields of view were taken for each well. To calculate the nuclear:cytoplasmic ratio of RNA-binding proteins (RBPs) in single cells, images were analysed using the Columbus Image Analysis System (Perkin Elmer). A DAPI mask defined the nucleus, and based on nuclear properties a trained machine learning feature selected neurons in an automated fashion. For each individual cell an average nuclear intensity of the RBP of interest was measured. For the cytoplasmic measurement, a 1.5 μm cytoplasmic region was defined around the nucleus within a cytoplasmic mask and an average intensity measured. […] A ratio of the nuclear:cytoplasmic average intensity measurements was calculated per cell. An average of each field was calculated and then averaged across the well.
(§7) For the nuclear:neurite ratio, we implemented a semi-automated image analysis pipeline combining Ilastik, Cellprofiler and ImageJ.

[1] = test system: control and VCP mutant motor neurons; assay: Western blot of TDP-43, FUS and SFPQ protein levels; assay type: cell-based, human; conditions: 1 μM ML240, 2 hours; whole cells
Procedure: Western blot analysis. Protein levels of TDP-43, FUS and SFPQ were assessed in whole cells in control and VCP mutant motor neurons. Cells were subjected to untreated conditions or treatment of 1 μM of ML240 for 2 hours prior to protein extraction. The cells were lysed and proteins were extracted with RIPA disruption. Total protein concentration was quantified using BCA protein assay (Sigma). Equal amounts of protein samples were then loaded onto a gel and separated by SDS PAGE and transferred onto a nitrocellulose membrane. Samples were then blocked with PBS, 0.1% Tween, 5% dry milk powder at RT for one hour followed by primary antibody incubation overnight at 4° C. The following antibodies were diluted in PBS 5% BSA; TDP-43 (ProteinTech; 12892-1-AP; rabbit; 1:1000), SFPQ (Abcam; 11825; mouse; 1:250), FUS (Santa Cruz; sc-47711; mouse; 1:500), GAPDH (GeneTex; GT239; mouse; 1:10000). For detection, membranes were incubated with species-specific near infra-red fluorescent antibodies (IRDye, Licor) at RT for one hour and imaged using an Odyssey Fc Imaging System (Licor).

control motor neurons = assay: RBP localisation by immunofluorescence in control iPSC-derived motor neurons; assay type: cell-based, human; conditions: vs untreated
Procedure: as §1, §2, §3, §4, §5, §6, §7

VCP ATPase = VCP ATPase (Homo sapiens, UniProt P55072); conditions: read-out: Potency of inhibition: IC50 on ATPase in vitro; cited from earlier work
Ub-G76V = conditions: read-out: Potency of inhibition: EC50 on Ub-G76V in cell culture; cited from earlier work
[2] = test system: TARDBP-mutant (G298S) motor neurons; conditions: 1 μM CB-5083, 3 hours, vs untreated
Procedure: Immunofluorescence staining. Cells were fixed in 4% paraformaldehyde in PBS for 15 minutes at room temperature (RT). For permeabilization and non-specific antibody blocking, 0.3% Triton-X containing 5% bovine serum albumin (BSA) (Sigma) in PBS was added for 60 minutes. Primary antibodies were made up in 5% BSA and then applied overnight at 4° C. […]
Image acquisition and analysis. […] To calculate the nuclear:cytoplasmic ratio of RNA-binding proteins (RBPs) in single cells, images were analysed using the Columbus Image Analysis System (Perkin Elmer). […] For each individual cell an average nuclear intensity of the RBP of interest was measured. For the cytoplasmic measurement, a 1.5 μm cytoplasmic region was defined around the nucleus within a cytoplasmic mask and an average intensity measured. […] A ratio of the nuclear:cytoplasmic average intensity measurements was calculated per cell. An average of each field was calculated and then averaged across the well.

[3] = 1 μM ML240, 2 hours, normalised to control untreated

Sequence of VCP ATPase (P55072 whole entry): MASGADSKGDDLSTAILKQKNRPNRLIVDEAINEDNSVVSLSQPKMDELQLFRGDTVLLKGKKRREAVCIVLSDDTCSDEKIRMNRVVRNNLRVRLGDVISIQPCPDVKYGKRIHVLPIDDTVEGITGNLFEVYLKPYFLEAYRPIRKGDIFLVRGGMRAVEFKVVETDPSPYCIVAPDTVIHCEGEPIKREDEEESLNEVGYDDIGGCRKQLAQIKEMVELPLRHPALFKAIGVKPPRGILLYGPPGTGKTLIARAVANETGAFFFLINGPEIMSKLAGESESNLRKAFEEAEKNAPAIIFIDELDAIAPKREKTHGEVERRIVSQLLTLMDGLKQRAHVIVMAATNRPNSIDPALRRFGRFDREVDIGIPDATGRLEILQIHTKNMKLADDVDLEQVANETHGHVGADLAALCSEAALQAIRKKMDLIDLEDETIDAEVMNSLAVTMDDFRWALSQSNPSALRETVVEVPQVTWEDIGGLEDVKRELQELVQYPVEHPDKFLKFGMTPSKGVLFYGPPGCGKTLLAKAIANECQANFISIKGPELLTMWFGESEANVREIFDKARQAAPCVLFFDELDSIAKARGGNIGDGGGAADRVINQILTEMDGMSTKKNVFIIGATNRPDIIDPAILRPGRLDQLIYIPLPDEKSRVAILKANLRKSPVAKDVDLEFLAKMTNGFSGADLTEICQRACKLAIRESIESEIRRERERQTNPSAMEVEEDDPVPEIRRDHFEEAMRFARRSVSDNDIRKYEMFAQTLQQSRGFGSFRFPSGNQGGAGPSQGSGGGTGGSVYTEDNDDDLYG

Compound: COc1cccc2c(NCc3ccccc3)nc(-n3c(N)nc4ccccc43)nc12 [ML240, 2-(2-Amino-1H-benzimidazole-1-yl)-8-methoxy-N-(phenylmethyl)-4-quinazolinamine]
- hnRNPA1 nuclear:cytoplasmic ratio (VCP mutant motor neurons; 1 μM ML240, 2 hours): no change
- hnRNPK nuclear:cytoplasmic ratio (VCP mutant motor neurons; 1 μM ML240, 2 hours): no change
- FUS nuclear:cytoplasmic ratio (VCP mutant motor neurons; [3]): robustly reversed the mislocalization; also recorded: increase
- FUS nuclear:neurite ratio (VCP mutant motor neurons; [3]): robustly reversed the mislocalization; also recorded: increase of the nuclear:neurite ratio to control values
- SFPQ nuclear:neurite ratio (VCP mutant motor neurons; [3]): significantly reversed; also recorded: increase
- TDP-43 nuclear:cytoplasmic ratio (N/C) (VCP mutant motor neurons; [3]): robustly reversed the mislocalization; also recorded: increased above control values
- TDP-43 nuclear:neurite ratio (Nu/Ne) (VCP mutant motor neurons; [3]): robustly reversed the mislocalization; also recorded: increased
- FUS overall protein level (Western blot, normalised to GAPDH) [1]: did not change; also recorded: does not change
- SFPQ overall protein level (Western blot, normalised to GAPDH) [1]: did not change; also recorded: does not change
- TDP-43 overall protein level (Western blot, normalised to GAPDH) [1]: did not change; also recorded: does not change
- FUS nuclear:cytoplasmic ratio (control motor neurons; 1 μM ML240, 2 hours): no difference
- FUS nuclear:neurite ratio (control motor neurons; 1 μM ML240, 2 hours): small increase
- SFPQ nuclear:cytoplasmic ratio (control motor neurons; 1 μM ML240, 2 hours): no difference
- SFPQ nuclear:neurite ratio (control motor neurons; 1 μM ML240, 2 hours): no difference
- TDP-43 nuclear:cytoplasmic ratio (N/C) (control motor neurons; 1 μM ML240, 2 hours): increase
- TDP-43 nuclear:neurite ratio (Nu/Ne) (control motor neurons; 1 μM ML240, 2 hours): no such increase was observed; also recorded: no difference
- hnRNPA1 nuclear:cytoplasmic ratio (control motor neurons; 1 μM ML240, 2 hours): no difference
- hnRNPK nuclear:cytoplasmic ratio (control motor neurons; 1 μM ML240, 2 hours): no difference

Compound: 3,4-methylenedioxy-6-nitrostyrene [Syk inhibitor III]
- IC50 (VCP ATPase): 1700 nM
- EC50 (Ub-G76V): 1600 nM

Compound: c1ccc(CNc2nc(NCc3ccccc3)c3ccccc3n2)cc1 [DBeQ, N2,N4-dibenzylquinazo-line-2,4-diamine]
- TDP-43 nuclear:cytoplasmic ratio (N/C) (VCP mutant motor neurons; 5 μM DBeQ, 3 hours, vs untreated): able to reverse
- TDP-43 nuclear:cytoplasmic ratio (N/C) (VCP mutant motor neurons; 5 μM DBeQ, 3 hours, vs untreated, listed as DBEQ): increase
- IC50 (VCP ATPase): 1500 nM
- EC50 (Ub-G76V): 2600 nM
- TDP-43 nuclear:cytoplasmic ratio (N/C) (control motor neurons; 5 μM DBeQ, 3 hours): increased
- TDP-43 nuclear:cytoplasmic ratio (N/C) (control motor neurons; 5 μM DBeQ, 3 hours, listed as DBEQ): increase

Compound: Cc1cc2c(C(N)=O)cccc2n1-c1nc2c(c(NCc3ccccc3)n1)COCC2 [CB-5083, 1-[7,8-dihydro-4-[(phenylmethyl)amino]-5H-pyrano[4,3-d]pyrimidin-2-yl]-2-methyl-1H-indole-4-carboxamide]
- TDP-43 nuclear:cytoplasmic ratio (N/C) [2]: increased
- TDP-43 nuclear:cytoplasmic ratio (N/C) ([2]; listed as CB5083): increase
- TDP-43 nuclear:cytoplasmic ratio (N/C) (VCP mutant motor neurons; 1 μM CB-5083, 3 hours, vs untreated): able to reverse
- TDP-43 nuclear:cytoplasmic ratio (N/C) (VCP mutant motor neurons; 1 μM CB-5083, 3 hours, vs untreated, listed as CB5083): increase
- TDP-43 nuclear:cytoplasmic ratio (N/C) (control motor neurons; 1 μM CB-5083, 3 hours): increase

Compound: Cc1cc(OCc2nnc(SC3CCCC3)n2-c2cccnc2)ccc1-c1ccc(S(C)(=O)=O)cc1 [NMS-873]
- EC50 (Ub-G76V): 400 to 700 nM
